Patent US20250179092A1, “PYRIDO[1,2-A]PYRIMIDIN-4-ONE DERIVATIVES” (Hoffmann-La Roche Inc., priority 2022, published 2025)
pEC50: −log10 of the molar value.

system: mutant HTT protein (mHTT); assay: Homogeneous Time Resolved Fluorescence (HTRF) assay for HTT lowering; type: cell-based; conditions: reduction of mHTT in Huntington patient human cells (GENEAe020-A cell line), 48 hours incubation, mean from three replicates
Method: Homogeneous Time Resolved Fluorescence for HTT Lowering
The HTRF assay was adapted from Weiss et al. (Analytical Biochemistry Volume 395, Issue 1, 1 Dec. 2009, Pages 8-15 and Analytical Biochemistry Volume 410, 2011, Pages 304-306) to cells from GENEAe020-A cell line (https.//hpscreg.eu/cell-line/GENEAe020-A).
Compounds were tested for the effect of mutant HTT levels in Huntington patient human cells (GENEAe020-A cell line) using Homogeneous Time Resolved Fluorescence (HTRF) directed towards mutant HTT protein (mHTT). The GENEAe020-A cell line was derived by Genea Biocells from human blastocysts of HD donors. After assessing viability, cells were plated into 384 well collagen coated plates in growth media. Once cells adhered, media was removed and test compounds dissolved in DMSO were diluted with buffer solution and added to the adherent cells. Controls included experiments with no cells, DMSO with no compound, and Hsp90 inhibitor control. Cells were incubated with compounds and controls for 48 hours. Then, the cells were lysed and transferred to an assay plate containing HTRF labeled monoclonal antibodies developed by Paul Patterson (Ko et al., Brain Research Bulletin, Volume 56, Numbers 3 and 4, 2001, Pages 319-329) which recognize specific areas of the HTT protein. The terbium labeled “donor” antibody (2B7) binds to the N-terminus of the HTT protein and the Alexa488 labeled “acceptor” antibody (MW1) is specific for the polyglutamine region of the protein. Binding of the acceptor labeled antibody is more efficient for the extended polyglutamine repeats of mutant HTT protein which translates into a signal boost which enables the specific measurement of mutant HTT protein level. The HTRF donor and acceptor detection reagents were incubated with the cell lysate and the ratio between the signals of the two fluorophores is indicative of the relative quantities of mHTT.

Point of comparison: `COc1cc(-c2cc(=O)n3cc(C4CCNC5(CC5)C4)ccc3n2)nn2cc(C)nc12` (racemic) [Example 2, rac-7-(4-azaspiro[2.5]octan-7-yl)-2-(8-methoxy-2-methyl-imidazo[1,2-b]pyridazin-6-yl)pyrido[1,2-a]pyrimidin-4-one], pEC50 7.68. Against it:
- Cc1cn2nc(-c3cc(=O)n4cc(C5CCNC6(CC6)C5)ccc4n3)cc(C)c2n1 (racemic) [Example 1, rac-7-(4-azaspiro[2.5]octan-7-yl)-2-(2,8-dimethylimidazo[1,2-b]pyridazin-6-yl)pyrido[1,2-a]pyrimidin-4-one] — within 0.2 log units, 7.51
- Cc1cn2nc(-c3cc(=O)n4cc(C5CCNC6(CC6)C5)ccc4n3)cc(C(F)(F)F)c2n1 (racemic) [Example 3, rac-7-(4-azaspiro[2.5]octan-7-yl)-2-[2-methyl-8-(trifluoromethyl)imidazo[1,2-b]pyridazin-6-yl]pyrido[1,2-a]pyrimidin-4-one] — 0.28 log units lower, 7.40
- Cc1nc2c(C)cc(-c3cc(=O)n4cc(C5CCNC6(CC6)C5)ccc4n3)nc2o1 (racemic) [Example 4, rac-7-(4-azaspiro[2.5]octan-7-yl)-2-(2,7-dimethyloxazolo[5,4-b]pyridin-5-yl)pyrido[1,2-a]pyrimidin-4-one] — 0.37 log units lower, 7.31
- O=c1cc(-c2ccc3nc(Cl)cn3n2)nc2ccc(C3CCNC4(CC4)C3)cn12 (racemic) [Example 5, rac-7-(4-azaspiro[2.5]octan-7-yl)-2-(2-chloroimidazo[1,2-b]pyridazin-6-yl)pyrido[1,2-a]pyrimidin-4-one] — 1.09 log units lower, 6.59
